Results on ten substances are retold here after publication PMC10041521, “Fluorescent Activity-Based Probe To Image and Inhibit Factor XIa Activity in Human Plasma” (Journal of Medicinal Chemistry, 2023).

Several values for one entry are separate records, joined by “and”; a condition that tells them apart may be missing. Equal values may be shown once. [ ]: non-standard residue; d: D form. The star is where a group is joined. ACC = NC(=O)Cc1cc(=O)oc2cc(N*)ccc12; Nle = CCCC[C@H](N)C(=O)O; OBn = c1ccc(CO*)cc1; Bn = c1ccc(C*)cc1 Some results are limits rather than exact numbers.

Common to all, as to format: biochemical
In experiment [1] the target is T1, fXIa (Homo sapiens, UniProt P03951). Description: Screening of individual substrates (hydrolysis rate, RFU/s). Particulars: substrate 1 μM, 5 nM fXIa, RFU/s over 30 min, 37 °C. More on the design: complete conversion of the single chain zymogen to the two-chain active form; made in house; host or cells: HEK293 cells expressing EBNA (pCEP4 vector). Here is the method:
(§1) All kinetic assays were performed using a spectrofluorometer (Molecular Devices SpectraMax Gemini XPS) on 96-well, white, flat bottom, nontreated plates (Corning). The parameters were as follows: excitation/emission wavelength, 355/460 nm (cutoff, 455 nm); varying concentrations of substrates, ABPs, inhibitor, and enzymes. The assay buffer (20 mM Tris-base, 150 mM NaCl, 5 mM CaCl2, pH 7.4) was prepared at room temperature, and the enzyme kinetic studies were performed at 37 °C. All enzymes were preincubated in assay buffer for 15 min at 37 °C before addition to the wells. Each assay was repeated at least twice, and the data represent the average of these repetitions. The obtained results were analyzed using SoftMax (Molecular Devices), GraphPad Prism, and Microsoft Excel software.
All potentially selective fXIa substrates were tested for their selectivity against four coagulation factors, APC, thrombin, fXa, and fXIa at a concentration of 1 μM. The assay conditions were as follows: 1 μL of each substrate was placed in separate wells on the plate followed by the addition of 99 μL of preincubated enzyme (15 min, 37 °C) in assay buffer. To obtain reliable results and a robust fluorescence signal, the final enzyme concentration was 120 nM for APC, 20 nM for thrombin, 70 nM for fXa, and 5 nM for fXIa. Substrate hydrolysis was measured for 30 min (λex = 355 nm, λem = 460 nm), and the linear part of each progress curve was used to determine the substrate hydrolysis rate (RFU/s). The obtained RFU/s were then adjusted to represent the value corresponding to the same enzyme activity.

Experiment [2] addresses T1, fXIa. Briefly: Labeling of purified coagulation factors with ABPs, SDS-PAGE and blot. Also noted: complete conversion of the single chain zymogen to the two-chain active form; made in house; host or cells: HEK293 cells expressing EBNA (pCEP4 vector). The settings on record: APC, thrombin, fXa, fXIa 200 nM each, separately, probe/enzyme 1:1, 30 min, 37 °C; for labeling of purified coagulation factors by biotinylated ABP (western blot): streptavidin Alexa Fluor 647, 658 nm. Here is the method:
To determine biotin-labeled ABPs selectivity, four purified coagulation factors (APC, thrombin, fXa, and fXIa) with a constant concentration of 200 nM were incubated separately with each probe (the probe/enzyme ratio was 1) in assay buffer for 30 min at 37 °C. Each enzyme was incubated with each probe in a volume of 40 μL followed by reduction with 20 μL of 3 × SDS/DTT for 5 min at 95 °C. The first well was loaded with 0.5 μL of the protein marker PageRuler Prestained Protein Ladder (Thermo Scientific), and then 10 μL of each sample was run on a 12% (w/v) 15-well gel. SDS–PAGE separation was performed at 200 V for 39 min followed by a wet tank transfer to a nitrocellulose membrane (0.2 μm, Bio-Rad) at 10 V for 60 min. The membrane was blocked with 2.5% BSA in TBS-T (Tris-buffered saline with 0.1% (v/v) Tween 20) for 60 min at room temperature. Next, the membrane was incubated with fluorescent streptavidin Alexa Fluor 647 conjugate (dilution 1:10,000 in TBS-T with 1% BSA) for 60 min. The biotin-labeled ABPs were detected at 658 nm using an Azure Biosystems Sapphire Biomolecular Imager and Azure Spot Analysis software.
For fluorescently labeled probe sample preparation, electrophoresis and membrane transfer were performed as described above. When testing the inhibitor utility, 200 nM fXIa was incubated with inhibitor (final inhibitor concentration 5 μM) for 60 min prior to probe addition. After the membrane was blocked with 2.5% BSA in TBS-T (60 min), the labeled proteins were directly imaged with a […] laser using an Azure Biosystems Sapphire Biomolecular Imager and Azure Spot Analysis software.
For orientation: Immunoblotting shows a protein as a band on a membrane.

Another experiment deals with T2, fXa (Homo sapiens, UniProt P00742).
T2 construct: from tissue; host or cells: fresh frozen plasma
T2 sequence (P00742 235-488 limits assumed): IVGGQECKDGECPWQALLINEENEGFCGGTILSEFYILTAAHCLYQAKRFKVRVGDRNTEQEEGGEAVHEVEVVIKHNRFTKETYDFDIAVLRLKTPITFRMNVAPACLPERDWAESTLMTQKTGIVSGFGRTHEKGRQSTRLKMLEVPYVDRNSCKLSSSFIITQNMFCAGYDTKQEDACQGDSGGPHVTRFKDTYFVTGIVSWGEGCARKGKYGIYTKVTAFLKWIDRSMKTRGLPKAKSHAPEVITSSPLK
T2 sequence (P00742 41-179 partner limits assumed): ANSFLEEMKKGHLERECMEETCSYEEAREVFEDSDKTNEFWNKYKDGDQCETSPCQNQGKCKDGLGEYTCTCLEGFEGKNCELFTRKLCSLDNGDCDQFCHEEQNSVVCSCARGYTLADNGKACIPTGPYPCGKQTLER
Briefly: Kinetic parameters (kcat/KM) of ACC-labeled substrates. The settings on record: Michaelis-Menten, 200 nM fXa, assay buffer pH 7.4, 37 °C, ACC release 30 min; mean ± s.d., n = 3. As for the experimental part: (§2) Protein C, factor X, and prothrombin were purified from fresh frozen plasma and then activated as previously described.[33]
as §1
(§3) The kinetic parameters (kcat, KM, and kcat/KM) of selected ACC-labeled substrates were determined using Michaelis–Menten nonlinear regression according to the protocol described by Poreba et al.[62] Each substrate was serially diluted until the eighth well to obtain substrate concentrations ranging from 1.16 nM to 111 μM depending on the substrate used. Next, each enzyme was preincubated (15 min, 37 °C) in assay buffer to a final enzyme concentration of 425 nM for APC, 70 nM for thrombin, 200 nM for fXa, and 5 nM for fXIa and was added to the wells containing eight different substrate concentrations. The release of ACC was measured for 30 min (λex = 355 nm, λem = 460 nm). The linear part of each progression curve was used to calculate the kinetic parameters using GraphPad Prism and Microsoft Excel software.

The target in a further experiment is T3, thrombin (Homo sapiens, UniProt P00734).
T3 construct: from tissue; host or cells: fresh frozen plasma
Described as above. The settings on record: Michaelis-Menten, 70 nM thrombin, assay buffer pH 7.4, 37 °C, ACC release 30 min; mean ± s.d., n = 3. As for the experimental part: as §2, §1, §3

In experiment [3] the target is T1, fXIa. Described as above. More on the design: complete conversion of the single chain zymogen to the two-chain active form; made in house; host or cells: HEK293 cells expressing EBNA (pCEP4 vector). Particulars: for kcat/KM fXIa: Michaelis-Menten, 5 nM fXIa, 20 mM Tris, 150 mM NaCl, 5 mM CaCl2, pH 7.4, 37 °C, ACC release 30 min, mean ± s.d., n = 3. As for the experimental part:
as §1, §3

The next experiment addresses T4, APC (Homo sapiens, UniProt P04070).
T4 construct: from tissue; host or cells: fresh frozen plasma
The experiment is described as above. Particulars: Michaelis-Menten, 425 nM APC, assay buffer pH 7.4, 37 °C, ACC release 30 min; mean ± s.d., n = 3. Here is the method: as §2, §1, §3

Experiment [4] has as its target T1, fXIa. Description: Detection of fXIa in human plasma with fluorescent ABP. Particulars: EDTA plasma, 60 min, 37 °C. Here is the method: Human plasma (collected in tubes containing anticoagulant EDTA) was isolated from whole blood as described elsewhere[33] and incubated with a fluorescently labeled probe at probe concentrations ranging from 1 to 20 μM. Incubation was carried out in assay buffer for 60 min at 37 °C. Plasma was incubated with the probe in a total volume of 40 μL (20 μL of plasma and 20 μL of probe) followed by reduction with 20 μL of 3 × SDS/DTT for 5 min at 95 °C. The first well was loaded with 0.5 μL of the protein marker PageRuler Prestained Protein Ladder (Thermo Scientific), and then 5 μL of each sample was run on a 12% (w/v) 15-well gel. SDS–PAGE separation was performed at 200 V for 39 min followed by transfer to a nitrocellulose membrane (0.2 μm, Bio-Rad) at 10 V for 60 min. The membrane was blocked with 2.5% BSA in TBS-T for 60 min at room temperature. Next, the membrane was treated with sheep antihuman polyclonal fXI antibody (Haematologic Technologies Inc., PAHFXI-S, 1:1000) for 7 h followed by incubation with Alexa Fluor 680 donkey antisheep secondary antibody (Life Technologies, A21102, 2:10,000) for 1 h (both at room temperature). The membrane was then scanned using an Azure Biosystems Sapphire Biomolecular Imager and Azure Spot Analysis software for fXIa at 488 nm (for BODIPY detection) and 658 nm (for antibody detection).

For experiment [5], the target named is T1, fXIa. Description: P1 substrate specificity, defined library Ac-Ala-Arg-Leu-P1-ACC. More on the design: complete conversion of the single chain zymogen to the two-chain active form; made in house; host or cells: HEK293 cells expressing EBNA (pCEP4 vector). The settings on record: individual substrates Ac-Ala-Arg-Leu-P1-ACC, 100 μM, 8 nM fXIa, RFU/s, best residue = 100%, n = 2. Here is the method: as §1
To determine fXIa preferences at the P1 position, we used the Ac-Ala-Arg-Leu-P1-ACC library of 133 individual fluorogenic substrates.[34] The assay conditions were as follows: 0.5 μL of each library substrate was placed in one well, and 99.5 μL of preincubated enzyme (15 min, 37 °C) was added. The final library concentration was 100 μM, and the enzyme concentration was 8 nM. The release of ACC was measured for 30 min (λex = 355 nm, λem = 460 nm), but only the linear portion of each progress curve was used to determine the substrate hydrolysis rate (RFU/s, relative fluorescence unit per second). […]

T1 sequence (P03951 388-625 limits assumed): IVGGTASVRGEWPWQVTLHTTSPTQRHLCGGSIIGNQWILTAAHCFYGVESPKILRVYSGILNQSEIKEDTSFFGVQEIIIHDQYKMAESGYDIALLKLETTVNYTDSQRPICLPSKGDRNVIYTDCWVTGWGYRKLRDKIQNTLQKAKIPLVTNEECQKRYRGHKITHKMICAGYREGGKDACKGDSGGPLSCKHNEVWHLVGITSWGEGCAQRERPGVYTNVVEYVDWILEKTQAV
T1 sequence (P03951 19-387 partner limits assumed): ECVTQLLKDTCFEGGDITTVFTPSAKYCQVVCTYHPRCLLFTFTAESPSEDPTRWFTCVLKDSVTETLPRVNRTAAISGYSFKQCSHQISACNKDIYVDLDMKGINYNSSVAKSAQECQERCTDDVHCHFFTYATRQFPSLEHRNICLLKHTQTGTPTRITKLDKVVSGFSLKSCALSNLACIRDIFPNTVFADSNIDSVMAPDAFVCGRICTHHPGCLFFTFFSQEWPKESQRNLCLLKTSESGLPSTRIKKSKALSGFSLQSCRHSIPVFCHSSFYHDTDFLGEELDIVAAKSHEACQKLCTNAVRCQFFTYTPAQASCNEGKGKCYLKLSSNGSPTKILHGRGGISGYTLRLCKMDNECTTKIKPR
T4 sequence (P04070 212-461 limits assumed): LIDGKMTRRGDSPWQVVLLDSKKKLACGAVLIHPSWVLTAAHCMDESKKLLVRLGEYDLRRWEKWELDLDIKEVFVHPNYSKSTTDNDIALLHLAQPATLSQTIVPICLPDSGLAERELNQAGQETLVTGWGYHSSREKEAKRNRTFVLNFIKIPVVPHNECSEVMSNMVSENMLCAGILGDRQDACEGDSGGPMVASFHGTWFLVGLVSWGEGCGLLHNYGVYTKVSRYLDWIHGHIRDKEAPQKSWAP
T4 sequence (P04070 43-197 partner limits assumed): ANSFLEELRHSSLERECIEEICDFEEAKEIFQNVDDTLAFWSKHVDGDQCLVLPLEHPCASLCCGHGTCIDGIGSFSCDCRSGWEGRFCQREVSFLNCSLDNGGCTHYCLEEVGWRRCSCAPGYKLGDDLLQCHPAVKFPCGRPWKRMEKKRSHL

On to “Ac-Tyr(2,6-Cl2-Z)-2-Aoc-hSer(Bzl)-Arg-ACC [SMXI23]”, for which the “decrease in activity relative to SMXI3 (P2 L-His(Bzl))” value at fXIa [1] was found to be 5.5 fold. Take “biotin-PEG(4)-Tyr(2,6-Cl2-Z)-Dht-His(Bzl)-ArgP(OPh)2 [P-SMXI191]”: the “labeling of purified coagulation factors by biotinylated ABP (western blot)” value at fXIa [2] was “only one signal from a protein between 35 and 40 kDa, corresponding to a fXIa monomer”. Consider “biotin-PEG(4)-Tyr(2,6-Cl2-Z)-Nle-Glu(Bzl)-ArgP(OPh)2 [P-SMXI51]”, for which, at fXIa [2], the “labeling of purified coagulation factors by biotinylated ABP (western blot)” value was “only one signal from a protein between 35 and 40 kDa, corresponding to a fXIa monomer”. As for “Ac-Tyr(2,6-Cl2-Z)-2-Aoc-Glu(Bzl)-Arg-ACC [SMXI7]”, at fXIa [1], the “decrease in activity relative to SMXI3 (P2 L-His(Bzl))” value was found to be 1.5 fold. Turning to “Ac-Tyr(2,6-Cl2-Z)-Nle-Glu(Bzl)-Arg-ACC [SMXI5]”, the “kcat/KM fXa” value at fXa is listed as 4,500 ± 300 M^-1 s^-1. Besides, on thrombin, the kcat/KM thrombin is on record as 11,000 ± 300 M^-1 s^-1. In addition, the “kcat/KM fXIa” value at fXIa [3] is recorded as 99,000 ± 7,000 M^-1 s^-1. On to “Ac-Y(Bn)[Nle]E(OBn)R-{ACC} (SMILES CCCC[C@H](NC(=O)[C@H](Cc1ccc(OCc2ccccc2)cc1)NC(C)=O)C(=O)N[C@@H](CCC(=O)OCc1ccccc1)C(=O)N[C@@H](CCCNC(=N)N)C(=O)Nc1ccc2c(CC(N)=O)cc(=O)oc2c1) [SMXI13]”, for which the “activity on fXIa relative to SMXI5” value at fXIa [1] (more active than SMXI5) is “fourfold”. Consider “Ac-Tyr(2,6-Cl2-Z)-Dht-His(Bzl)-Arg-ACC [SMXI19]”, for which the “kcat/KM APC” value on APC is 91 ± 3 M⁻¹ s⁻¹. For the same substance, the “kcat/KM fXIa” value at fXIa [3] was 247,000 ± 5,000 M^-1 s^-1 and 247,000 ± 5000 M^-1 s^-1. The “fold better hydrolyzed by fXIa than by fXa (kcat/KM ratio)” value on fXIa [3] (fXIa over fXa) is 80 fold. Also, the “fold better hydrolyzed by fXIa than by thrombin (kcat/KM ratio)” value on fXIa [3] (fXIa over thrombin) came out at 28 fold. On to “BODIPY-PEG(4)-Tyr(2,6-Cl2-Z)-Nle-Glu(Bzl)-ArgP(OPh)2 [P-SMXI52]”, for which the “probe concentration from which a clear fXIa band is observed in human plasma” value at fXIa [4] (probe 1-20 μM, SDS-PAGE, 488 nm, costaining with antifXI antibody) is at least 2 µM. In addition, at fXIa [4] (probe up to 20 μM), the “selectivity of labeling in human plasma” value is listed as “remained selective even at a high probe concentration (20 μM)”. The “labeling of purified coagulation factors by fluorescent ABP (blot, 488 nm)” value at fXIa [2] is “only one fluorescent band generated by fXIa labeling and no off-target signals”. For the substance “Ac-Tyr(2,6-Cl2-Z)-2-Aoc-Nle(O-Bzl)-Arg-ACC [SMXI22]”, the “decrease in activity relative to SMXI3 (P2 L-His(Bzl))” value on fXIa [1] stood at 2.6 fold. As for L-Arg, the “relative activity at the P1 position” value at fXIa [5] was 100%.
